The values below come from PMC7901654, “Bioisosteric Discovery of NPA101.3, a Second-Generation RET/VEGFR2 Inhibitor Optimized for Single-Agent Polypharmacology” (Journal of Medicinal Chemistry, 2020).

Test [1] concerns the target T1, DMPK (Homo sapiens, UniProt Q09013).
T1 construct: purchased DiscoveRx KINOMEscan (TRKA and CSF1R IC50 enzymes from Invitrogen)
Put plainly: KinomeScan panel screen. The test is classed as binding. The settings on record: 100 nM, read-out: Percent Control. The procedure:
(§1) In addition, NPA101.3, at a concentration of 100 nM, was subjected to a kinome scan against a 96-kinase panel representing major kinome clusters (Table S2). The compound featured good selectivity, displaying strong binding activity (>90% bound) for only seven additional kinases [CSF1R (colony stimulating factor 1 receptor), FRK (fyn-related Src family tyrosine kinase), HCK (HCK proto-oncogene, Src family tyrosine kinase), LYN (lyn proto-oncogene, Src family tyrosine kinase), MKNK2 (MAPK-interacting serine/threonine kinase 2), TRKA (neurotrophic receptor tyrosine kinase 1), and TRKC (neurotrophic receptor tyrosine kinase 3)] and weak binding (>10–35% bound) for six other kinases (Table S2 and Figure S2). It is important to note that the measurement of binding affinity, which is based on control ligand displacement (Kd), is more sensitive than the in vitro kinase assay. Among the seven kinases with >90% binding, TRKA and CSF1R were selected for an in vitro kinase assay.
(§2) Supplementary Table S2: NPA101.3 KinomeScan Panel screen.
(§3) NPA101.3 was screened at a single concentration of 100 nM. Hits values lower than
(§4) 10% of control were considered strongly positive.
(§5) DiscoveRx Gene Entrez Gene Percent Compound
(§6) Symbol Symbol Control Concentration

For test [2], the target named is T2, TRKA (Homo sapiens, UniProt P04629).
T2 construct: purchased Invitrogen
T2 sequence (P04629 33-796): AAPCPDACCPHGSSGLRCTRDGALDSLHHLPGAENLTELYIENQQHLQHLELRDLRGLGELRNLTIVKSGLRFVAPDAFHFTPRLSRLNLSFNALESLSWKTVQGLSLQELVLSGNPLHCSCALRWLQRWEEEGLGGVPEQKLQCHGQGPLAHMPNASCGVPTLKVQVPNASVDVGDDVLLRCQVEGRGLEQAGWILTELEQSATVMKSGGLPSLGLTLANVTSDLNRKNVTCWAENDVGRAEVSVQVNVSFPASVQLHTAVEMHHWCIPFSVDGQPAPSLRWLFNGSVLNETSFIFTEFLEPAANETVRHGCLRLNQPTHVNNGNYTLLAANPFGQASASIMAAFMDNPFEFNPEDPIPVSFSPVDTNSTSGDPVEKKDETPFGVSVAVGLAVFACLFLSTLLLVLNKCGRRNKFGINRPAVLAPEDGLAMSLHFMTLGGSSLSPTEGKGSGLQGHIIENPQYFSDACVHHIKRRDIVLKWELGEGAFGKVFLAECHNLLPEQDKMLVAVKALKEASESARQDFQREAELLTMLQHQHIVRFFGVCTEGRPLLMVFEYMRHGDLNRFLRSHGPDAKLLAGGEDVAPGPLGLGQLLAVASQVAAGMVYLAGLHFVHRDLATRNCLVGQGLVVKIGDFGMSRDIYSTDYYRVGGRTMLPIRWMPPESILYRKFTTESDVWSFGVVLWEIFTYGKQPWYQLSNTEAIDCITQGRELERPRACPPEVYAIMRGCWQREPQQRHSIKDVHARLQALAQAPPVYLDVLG
As to the kind of experiment: KinomeScan panel screen. To be noted: 100 nM. Format: binding. On the procedure: as §1, §2, §3, §4, §5, §6

The target in test [3] is T3, CLK1 (Homo sapiens, UniProt P49759).
T3 construct: purchased DiscoveRx KINOMEscan (TRKA and CSF1R IC50 enzymes from Invitrogen)
Put plainly: KinomeScan panel screen. Format: binding. The settings on record: CLK1, 100 nM; read-out: Percent Control. The procedure: as §1, §2, §3, §4, §5, §6

In test [4] the target is T4, DLK (Homo sapiens, UniProt Q12852).
T4 construct: purchased DiscoveRx KINOMEscan (TRKA and CSF1R IC50 enzymes from Invitrogen)
T4 sequence (Q12852 whole entry): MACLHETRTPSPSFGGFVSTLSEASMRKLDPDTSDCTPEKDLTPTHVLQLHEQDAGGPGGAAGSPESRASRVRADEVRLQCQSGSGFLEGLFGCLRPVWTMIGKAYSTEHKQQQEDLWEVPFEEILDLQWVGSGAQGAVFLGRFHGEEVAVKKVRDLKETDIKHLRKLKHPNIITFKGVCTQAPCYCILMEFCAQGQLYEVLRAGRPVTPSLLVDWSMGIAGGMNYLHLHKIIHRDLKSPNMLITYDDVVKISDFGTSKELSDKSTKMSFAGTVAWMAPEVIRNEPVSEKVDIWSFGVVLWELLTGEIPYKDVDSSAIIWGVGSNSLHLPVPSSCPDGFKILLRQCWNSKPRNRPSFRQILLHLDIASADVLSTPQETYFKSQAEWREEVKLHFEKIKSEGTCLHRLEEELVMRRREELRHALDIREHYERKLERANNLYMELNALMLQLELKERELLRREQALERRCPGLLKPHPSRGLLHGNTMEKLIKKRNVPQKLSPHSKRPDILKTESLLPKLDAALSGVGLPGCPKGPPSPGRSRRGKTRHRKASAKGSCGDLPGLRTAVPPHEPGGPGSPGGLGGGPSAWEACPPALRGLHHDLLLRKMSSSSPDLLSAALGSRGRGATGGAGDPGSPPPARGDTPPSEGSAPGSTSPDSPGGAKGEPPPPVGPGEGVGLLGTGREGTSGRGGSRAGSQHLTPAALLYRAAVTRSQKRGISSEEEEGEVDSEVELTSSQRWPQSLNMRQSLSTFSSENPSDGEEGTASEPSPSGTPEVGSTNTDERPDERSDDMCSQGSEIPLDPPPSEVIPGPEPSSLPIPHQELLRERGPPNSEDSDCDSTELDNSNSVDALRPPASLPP
Put plainly: KinomeScan panel screen. The test is classed as binding. To be noted: 100 nM, read-out: Percent Control. The procedure:
as §1, §2, §3, §4, §5, §6

For test [5], the target named is T5, MYLK4 (Homo sapiens, UniProt Q86YV6).
T5 construct: purchased DiscoveRx KINOMEscan (TRKA and CSF1R IC50 enzymes from Invitrogen)
Put plainly: KinomeScan panel screen. The test is classed as binding. The settings on record: MYLK4, 100 nM; read-out: Percent Control. The procedure:
as §1, §2, §3, §4, §5, §6

The target in test [6] is T6, WNK1 (Homo sapiens, UniProt Q9H4A3).
T6 construct: purchased DiscoverX (outsourced KINOMEscan)
As to the kind of experiment: KinomeScan panel screen. The test is classed as binding. To be noted: WNK1, 100 nM; read-out: Percent Control. The procedure: as §1, §2, §3, §4, §5, §6

For test [7], the target named is T7, TAK1 (Homo sapiens, UniProt O43318).
T7 construct: purchased DiscoveRx KINOMEscan (TRKA and CSF1R IC50 enzymes from Invitrogen)
Put plainly: KinomeScan panel screen. The test is classed as binding. The settings on record: TAK1, 100 nM; read-out: Percent Control. The procedure:
as §1, §2, §3, §4, §5, §6

Test [8] has as its target T8, IKK-beta (Homo sapiens, UniProt O14920).
T8 construct: purchased DiscoveRx KINOMEscan (TRKA and CSF1R IC50 enzymes from Invitrogen)
As to the kind of experiment: KinomeScan panel screen. Format: binding. The settings on record: 100 nM, read-out: Percent Control. The procedure:
as §1, §2, §3, §4, §5, §6

For test [9], the target named is T9, MLK3 (Homo sapiens, UniProt Q16584).
T9 construct: purchased DiscoveRx KINOMEscan (TRKA and CSF1R IC50 enzymes from Invitrogen)
T9 sequence (Q16584 whole entry): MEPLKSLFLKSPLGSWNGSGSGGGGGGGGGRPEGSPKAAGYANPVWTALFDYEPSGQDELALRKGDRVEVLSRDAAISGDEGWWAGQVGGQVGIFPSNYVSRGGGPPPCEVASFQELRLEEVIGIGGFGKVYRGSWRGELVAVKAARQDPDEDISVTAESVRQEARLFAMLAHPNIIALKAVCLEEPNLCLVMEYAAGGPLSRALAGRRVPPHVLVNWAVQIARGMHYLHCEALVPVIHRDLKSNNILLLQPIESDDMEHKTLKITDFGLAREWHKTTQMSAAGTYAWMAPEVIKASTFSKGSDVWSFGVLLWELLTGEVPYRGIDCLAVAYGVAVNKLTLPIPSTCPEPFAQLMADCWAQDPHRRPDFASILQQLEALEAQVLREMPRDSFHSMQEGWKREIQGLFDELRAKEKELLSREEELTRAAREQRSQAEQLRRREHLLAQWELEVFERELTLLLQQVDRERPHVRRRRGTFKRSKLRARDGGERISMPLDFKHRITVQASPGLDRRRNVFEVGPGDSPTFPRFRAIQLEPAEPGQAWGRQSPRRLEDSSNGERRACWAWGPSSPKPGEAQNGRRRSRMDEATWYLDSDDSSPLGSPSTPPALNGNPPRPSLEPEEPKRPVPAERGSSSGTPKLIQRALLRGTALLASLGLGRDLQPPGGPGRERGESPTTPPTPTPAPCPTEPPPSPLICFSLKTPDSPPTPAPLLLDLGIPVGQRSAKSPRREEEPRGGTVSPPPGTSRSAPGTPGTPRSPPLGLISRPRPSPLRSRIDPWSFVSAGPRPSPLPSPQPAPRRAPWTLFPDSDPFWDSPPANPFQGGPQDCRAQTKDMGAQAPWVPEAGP
As to the kind of experiment: KinomeScan panel screen. The test is classed as binding. The settings on record: MLK3, 100 nM; read-out: Percent Control. The procedure:
as §1, §2, §3, §4, §5, §6

For test [10], the target named is T10, YANK2 (Homo sapiens, UniProt Q9NY57).
T10 construct: purchased DiscoverX (outsourced KINOMEscan)
As to the kind of experiment: KinomeScan panel screen. The test is classed as binding. To be noted: YANK2, 100 nM; read-out: Percent Control. On the procedure:
as §1, §2, §3, §4, §5, §6

Test [11] concerns the target T11, RIPK4 (Homo sapiens, UniProt P57078).
T11 construct: purchased DiscoveRx KINOMEscan (TRKA and CSF1R IC50 enzymes from Invitrogen)
Put plainly: KinomeScan panel screen. The test is classed as binding. To be noted: RIPK4, 100 nM; read-out: Percent Control. The procedure:
as §1, §2, §3, §4, §5, §6

Test [12] addresses T12, ALK (Homo sapiens, UniProt Q9UM73).
T12 construct: purchased DiscoveRx KINOMEscan (TRKA and CSF1R IC50 enzymes from Invitrogen)
Put plainly: KinomeScan panel screen. The test is classed as binding. To be noted: 100 nM, read-out: Percent Control. The procedure:
as §1, §2, §3, §4, §5, §6

For test [13], the target named is T13, IGF1R (Homo sapiens, UniProt P08069).
T13 construct: purchased DiscoveRx KINOMEscan (TRKA and CSF1R IC50 enzymes from Invitrogen)
As to the kind of experiment: KinomeScan panel screen. To be noted: 100 nM, read-out: Percent Control. Format: binding. The procedure:
as §1, §2, §3, §4, §5, §6

Test [14] deals with T14, AKT1 (Homo sapiens, UniProt P31749).
T14 construct: purchased DiscoveRx KINOMEscan (TRKA and CSF1R IC50 enzymes from Invitrogen)
Put plainly: KinomeScan panel screen. Format: binding. The settings on record: AKT1, 100 nM; read-out: Percent Control. The procedure:
as §1, §2, §3, §4, §5, §6

In test [15] the test system is RET/M918T, RET/A883F, and RET/V804L/M. As to the kind of experiment: RET phosphorylation Western blot in RAT1 cells, other point mutants. Format: cell-based. The settings on record: 2 h. The procedure: Fibroblasts transfected with RET/C634R were treated with increasing doses of NPA101.3, ranging from 0.1 to 10.0 nM. RET autophosphorylation was assessed by Western blotting using two different antibodies that can recognize phosphorylated Y905, located in the RET kinase activation loop, or Y1062, a multidocking site involved in RET downstream signaling.[41]
Figure 4 NPA101.3-mediated inhibition of phosphorylation and signaling of oncogenic RET mutants and VEGFR2 in intact cells. Serum-starved RAT1 cells exogenously expressing the (A and B) indicated RET point mutants or (C) NIH3T3 cells exogenously expressing the indicated RET rearranged mutants were treated for 2 h with the indicated concentrations of the compound. Total cell lysates (50 μg) were subjected to immunoblotting with anti-phospho-Y1062 (αp1062) and anti-phospho-Y905 (αp905) RET antibodies. The blots were normalized using the anti-RET (αRET) antibody. (D) HEK293 cells were transiently transfected with human VEGFR2; 36 h after transfection, cells were serum starved for 12 h. The indicated doses of the compound or vehicle (NT) were added for 2 h, and then VEGFA (100 ng/mL) stimulation was applied for 15 min. […]
Protein lysates were prepared according to standard procedures. […] Immune complexes were detected with the enhanced chemiluminescence kit (Amersham Pharmacia Biotech, Little Chalfont, U.K.). […]

T11 sequence (P57078 whole entry): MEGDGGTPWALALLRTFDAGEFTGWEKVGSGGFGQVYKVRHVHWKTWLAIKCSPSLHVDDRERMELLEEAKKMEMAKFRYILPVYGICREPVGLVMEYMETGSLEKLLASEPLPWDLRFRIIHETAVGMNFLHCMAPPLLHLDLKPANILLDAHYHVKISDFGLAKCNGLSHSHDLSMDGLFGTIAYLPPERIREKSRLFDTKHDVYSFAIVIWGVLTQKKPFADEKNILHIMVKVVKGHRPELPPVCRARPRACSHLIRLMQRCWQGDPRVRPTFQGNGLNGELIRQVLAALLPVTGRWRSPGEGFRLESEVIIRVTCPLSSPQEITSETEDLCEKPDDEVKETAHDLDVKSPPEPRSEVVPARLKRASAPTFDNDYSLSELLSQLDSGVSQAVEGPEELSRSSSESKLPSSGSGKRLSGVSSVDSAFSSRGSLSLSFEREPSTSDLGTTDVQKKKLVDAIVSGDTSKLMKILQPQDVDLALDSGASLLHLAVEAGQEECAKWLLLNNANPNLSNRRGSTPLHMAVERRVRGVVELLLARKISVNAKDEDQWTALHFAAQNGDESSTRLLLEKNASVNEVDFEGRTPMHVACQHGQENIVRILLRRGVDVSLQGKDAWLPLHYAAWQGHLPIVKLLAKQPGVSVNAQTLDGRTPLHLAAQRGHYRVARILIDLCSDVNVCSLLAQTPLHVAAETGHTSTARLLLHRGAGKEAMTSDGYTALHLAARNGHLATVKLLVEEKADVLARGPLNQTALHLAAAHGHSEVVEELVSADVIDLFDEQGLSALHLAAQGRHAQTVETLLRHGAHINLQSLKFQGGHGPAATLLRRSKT
T12 sequence (Q9UM73 19-1620): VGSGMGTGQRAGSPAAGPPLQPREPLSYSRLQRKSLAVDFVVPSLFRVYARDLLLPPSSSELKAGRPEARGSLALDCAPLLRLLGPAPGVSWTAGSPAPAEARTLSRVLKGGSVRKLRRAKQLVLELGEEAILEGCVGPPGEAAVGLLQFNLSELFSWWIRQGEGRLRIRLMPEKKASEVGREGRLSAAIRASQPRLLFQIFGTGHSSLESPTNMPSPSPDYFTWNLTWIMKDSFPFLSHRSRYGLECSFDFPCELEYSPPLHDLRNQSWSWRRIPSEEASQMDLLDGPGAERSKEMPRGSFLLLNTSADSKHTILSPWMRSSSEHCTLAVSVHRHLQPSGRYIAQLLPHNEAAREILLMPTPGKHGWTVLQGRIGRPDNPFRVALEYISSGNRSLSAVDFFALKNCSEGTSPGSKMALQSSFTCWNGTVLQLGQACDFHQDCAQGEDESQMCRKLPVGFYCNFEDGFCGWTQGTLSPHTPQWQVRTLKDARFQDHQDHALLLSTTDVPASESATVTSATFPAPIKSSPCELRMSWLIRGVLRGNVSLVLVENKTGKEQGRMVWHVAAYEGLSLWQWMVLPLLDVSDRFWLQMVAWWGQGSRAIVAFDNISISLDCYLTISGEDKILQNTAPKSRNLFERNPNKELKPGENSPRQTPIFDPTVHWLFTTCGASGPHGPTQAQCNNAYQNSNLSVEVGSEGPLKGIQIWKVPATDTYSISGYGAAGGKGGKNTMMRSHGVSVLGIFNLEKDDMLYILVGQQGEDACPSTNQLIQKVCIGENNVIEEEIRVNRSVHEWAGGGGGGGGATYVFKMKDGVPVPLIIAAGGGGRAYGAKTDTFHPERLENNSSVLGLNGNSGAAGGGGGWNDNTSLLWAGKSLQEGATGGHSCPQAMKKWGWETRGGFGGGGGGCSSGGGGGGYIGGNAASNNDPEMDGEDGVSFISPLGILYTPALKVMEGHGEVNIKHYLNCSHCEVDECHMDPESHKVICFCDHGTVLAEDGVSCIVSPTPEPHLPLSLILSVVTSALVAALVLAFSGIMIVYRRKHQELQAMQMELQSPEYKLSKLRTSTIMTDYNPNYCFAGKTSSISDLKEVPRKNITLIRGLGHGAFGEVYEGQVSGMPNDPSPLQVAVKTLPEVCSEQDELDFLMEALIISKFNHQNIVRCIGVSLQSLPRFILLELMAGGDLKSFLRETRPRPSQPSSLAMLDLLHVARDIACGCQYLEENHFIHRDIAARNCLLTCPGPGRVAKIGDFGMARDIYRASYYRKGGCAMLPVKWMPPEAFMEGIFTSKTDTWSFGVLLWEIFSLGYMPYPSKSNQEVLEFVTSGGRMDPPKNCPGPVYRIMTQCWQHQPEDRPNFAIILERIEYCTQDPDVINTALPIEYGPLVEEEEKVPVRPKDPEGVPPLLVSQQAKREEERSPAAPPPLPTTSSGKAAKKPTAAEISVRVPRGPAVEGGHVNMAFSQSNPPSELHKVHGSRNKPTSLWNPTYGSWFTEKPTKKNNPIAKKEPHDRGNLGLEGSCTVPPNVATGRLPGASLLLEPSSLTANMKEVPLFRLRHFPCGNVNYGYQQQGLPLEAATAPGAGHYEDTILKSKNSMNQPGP

Consider `CC(C)(C)c1cc(NC(=O)Cc2ccc(-n3cnc4cc(-c5ccc(S(C)(=O)=O)cc5)ccc43)cc2)no1` [NPA101.3], for which the remaining binding at 0.1 µM in test [1] amounted to 99%; in test [2] (TRKA, read-out: Percent Control), 1.3%; in test [3], 82%; in test [4] it was 100%; in test [5] it was 89%; in [6], 93%. Also, the remaining binding at 0.1 µM came to 13% in test [7]; 100% in test [8]; 100% in test [9]; 98% in test [10]; 100% in test [11]; 93% in [12]. In addition, the remaining binding at 0.1 µM in test [13] and in test [14] was 100% throughout. In test [2], the “binding (% bound)” value is given as over 90 % bound. Further, in test [15], the “phosphorylation of other MTC-associated RET oncogenic point mutants” value is “inhibited”.
